First: COC=C(C(=O)OC)c1ccccc1CCc1ccccc1
Second: O=C(NC(c1ccccc1)C(O)C(=O)OCc1ccccc1)c1ccccc1 (stereo unspecified)
The melting point of the first is lower: 52 to 54 °C for the first, 129 to 131 °C for the second.

First: NS(=O)(=O)c1ccc(-c2cc(F)c(F)cc2-c2ccc(F)c(Cl)c2)cc1
Second: OCCc1ccc(-c2ccc(Cl)cc2)cc1
The melting point of the first is higher: 162 to 163 °C for the first, 113 to 115 °C for the second.

Compared with CCOc1ccccc1-c1ccc2c(c1)C=C(C(=O)Nc1ccc(CN(C)C3CCOCC3)cc1)CCS2(=O)=O, O=C(Cc1ccccc1)Nc1ccc(-n2nc(C3CC3)cc2C2CC2)cc1 is lower in melting point: 171 to 173 °C for the first, 133 to 138 °C for the second.

First: O=C(O)CCN1C(=O)c2cccc([N+](=O)[O-])c2C1=O
Second: NC(=O)Cc1ccc([N+](=O)[O-])c(C(=O)c2ccc(Cl)cc2)c1
The melting point of the first is lower: 146 to 148 °C for the first, 212 °C for the second.

Compared with CCCCCCCCCCc1ccc2ccc(OC)cc2c1, N#Cc1ccc(-c2ccc(OCCCCCCC(=O)NO)cc2)cc1 is higher in melting point: 29.9 to 30.8 °C for the first, 79 to 82 °C for the second.

Compared with CC(C)c1cc(C(C)C)c2nc[nH]c(=O)c2c1, CCc1cc(CC)c(-c2c(OCCl)c(C)nn(C)c2=O)c(CC)c1 is lower in melting point: 164 to 165 °C for the first, 103 to 104 °C for the second.

First: CC(=O)OC1CSC(Oc2c(C#N)ccnc2C)C(OC(C)=O)C1OC(C)=O (stereo unspecified)
Second: CCOC(=O)C=C(C)NC(=O)Nc1cc(OC(C)C)c(Cl)cc1F
The melting point of the first is lower: 109 to 113 °C for the first, 142 to 144 °C for the second.

First: c1ccc2c(c1)N=C(N1CCCCC1)c1cscc1N2
Second: O=C(c1[nH]c2ccc(F)cc2c1Sc1ccccn1)N1CCCC1
The melting point of the first is lower: 157 to 159 °C for the first, 204 to 206 °C for the second.

Compared with Cc1cccc(/C(N)=C2\Sc3ccccc3C2=O)c1, O=C1COCc2cc(-c3ccccc3)ccc21 is higher in melting point: 114 to 115 °C for the first, 127 to 128 °C for the second.

First: Cn1nc(-c2ccc3c(c2)OCO3)c(-c2ccncc2)c1NC(=O)Cc1ccccc1
Second: O=C(Nc1cccc(-c2ncnc3[nH]c(-c4ccncc4)cc23)c1)c1cccc(C(F)(F)F)c1
The melting point of the first is lower: 128 to 132 °C for the first, > 280 °C for the second.

First: Cn1cc(CO)c(=O)c2cccc(F)c21
Second: O=C(O)Cc1cc(Cl)c2c(c1)CCC(c1ccccc1F)N2 (stereo unspecified)
The melting point of the first is higher: 206 to 210 °C for the first, 127 to 129 °C for the second.

First: C#CCN=C(NC#N)SC
Second: CCS(=O)(=O)Nc1cc(-c2ncnc(Cl)c2Cl)c(F)cc1C#N
The melting point of the first is higher: 160 to 164 °C for the first, 149 to 150 °C for the second.

Compared with c1ccc(-c2cnc(NC3=NCC4(CN5CCC4CC5)O3)s2)cc1 (stereo unspecified), Cc1cn(C(C(=O)N(C)C)C2CCCCC2)nc1-c1ccccc1 (stereo unspecified) is lower in melting point: 187 to 189 °C for the first, 102 to 104 °C for the second.

First: Cc1cc(-n2cnnc2)ccc1[N+](=O)[O-]
Second: CC1(CCn2nc(-c3ccncc3)oc2=O)Cn2cc([N+](=O)[O-])nc2O1 (stereo unspecified)
The melting point of the first is higher: 208 to 210 °C for the first, 147 to 149 °C for the second.

Compared with O=c1c2c(OCC3CS3)cc(OCC3CS3)cc2oc2ccc3ccccc3c12 (stereo unspecified), COc1ccc(C(=O)Nc2cccnc2Cl)c2c1oc1ccccc12 is lower in melting point: 225 to 226 °C for the first, 192 °C for the second.

First: CCCCc1nc(C(=O)CC)c(C#N)n1C(c1ccccc1)(c1ccccc1)c1ccccc1
Second: NC(=O)CCCCCOc1cc(-c2ccccc2)cc(-c2ccccc2)n1
The melting point of the first is higher: 140 to 143 °C for the first, 118 to 120 °C for the second.

First: O=C(O)c1c(Cc2cc3c(cc2Cl)OCO3)c(-c2ccco2)nn1CC1CCCCC1
Second: O=c1[nH]c2ncc(-c3ccc4[nH]ccc4c3)nc2n1CC1CCCCC1
The melting point of the first is lower: 248 °C for the first, 343 to 346 °C for the second.

Cc1cc(N(C)C)ccc1C1(N(c2ccc(N(C)C)cc2)c2ccc(N(C)C)cc2)OC(=O)c2ccccc21 (stereo unspecified) and Cc1oc(-c2ccccc2)nc1CC#Cc1ccc(CC(C(=O)O)c2cccc(-c3ccccc3)c2)cc1 (stereo unspecified) cannot be ordered by melting point: 97 to 113 °C for the first, 105 to 107 °C for the second.

First: Cc1c(-c2ccccc2)nn(C(C)(C)C(=O)N(C)C)c1C
Second: CC(C)n1nc(-c2sc(NC(=O)Cn3ccnc3)nc2-c2ccccc2)ccc1=O
The melting point of the first is lower: 115 to 117 °C for the first, 160 to 161 °C for the second.

First: O=C(O)CNC(=O)c1sc(Nc2ccccc2)c2c1CCc1cnoc1-2
Second: CC(=O)Oc1ccc(-n2c(-c3ccccc3)cc3c2CCCC3)cc1C(=O)O
The melting point of the first is higher: 193 to 194 °C for the first, 155 to 162 °C for the second.

First: O=[N+]([O-])c1cn2c(n1)OC[C@@H](OCC#Cc1ccc(Br)cc1)C2
Second: Cn1cc(Br)cc(Nc2ccc(C3CNC3)cn2)c1=O
The melting point of the first is higher: 160 to 162 °C for the first, 123 to 124 °C for the second.

First: COC(=O)c1snc(-c2ccc(Cl)c(Cl)c2)c1C(=O)OC
Second: COC(=O)c1ccc(N)c(C(=O)OC)c1
The melting point of the first is lower: 105 to 107 °C for the first, 127 to 130 °C for the second.

Compared with FC(F)(F)c1ccc2c(Cl)ncc(Br)c2n1, Nc1c(Br)cnn1-c1c(Cl)ccc(Cl)c1Cl is higher in melting point: 59 to 60 °C for the first, 129 °C for the second.

Compared with N[C@@H](C/C(=C\C1CC1)C(=O)O)C(=O)O, CC1(C)CCC(S)(CCOC(=O)CCC(=O)O)CC1 is lower in melting point: 204 °C for the first, 55 to 60 °C for the second.

Compared with CC1(C)SC2C(N)C(=O)N2C1NC(=O)OCC(Cl)(Cl)Cl (stereo unspecified), CC(C)(C)OC(=O)Cn1c(=O)c(=O)[nH]c2cc(Cl)c(Cl)cc21 is higher in melting point: 151 to 155 °C for the first, > 300 °C for the second.

Going from Fc1ccc(-c2csc(-c3cn([C@H]4CN5CCC4CC5)nn3)c2)cn1 to COCOc1ccc(-c2ncc3ccc(-c4csc(CN5CCN(C)CC5)c4)nc3n2)cc1, the melting point rises from 136 °C to > 268 °C.

Compared with CC(C)CC(S)C(=O)NC(C)(C)C(=O)NC(Cc1ccc(-c2cccs2)nc1)C(=O)O (stereo unspecified), NC(=O)N1C(=O)C(=C(OC(=O)COCc2ccccc2)c2cccs2)c2cc(F)c(Cl)cc21 is lower in melting point: 194 to 196 °C for the first, 150 to 175 °C for the second.

First: O=C(O)C1=CC(CF)(CF)Oc2ccc(Cl)cc21
Second: NC(=O)CNC(=O)c1cccc(-c2ccc(F)c3cc(Cc4cccc(C(F)(F)F)c4)sc23)c1
The melting point of the first is lower: 151 to 152 °C for the first, 157 to 158 °C for the second.

First: CC(=O)Nc1ccc(OC(F)(F)C(F)F)cc1
Second: CC(C)c1ccc(S(=O)(=O)Nc2ccc(OC(F)(F)F)cc2I)cc1
The melting point of the first is higher: 121 to 122 °C for the first, 72 °C for the second.

First: NCCCOc1ccc(OCCCN)cc1
Second: NCCCCn1cnc(-c2ccc(F)cc2)c1
The melting point of the first is lower: 73 to 74 °C for the first, 138 to 140 °C for the second.

First: COC(=O)Nc1cc(NC(=O)NSC(=S)N(C)C)ccc1C
Second: Cc1cccc(Cl)c1OC1CN(C(=O)N(C)C)C1
The melting point of the first is higher: 180 to 185 °C for the first, 46 to 47 °C for the second.

Compared with COC(=O)c1nc(-c2ccc([Si](C)(C)C)cc2F)c(F)c(N)c1OC, COc1ccc(NC(=O)c2c(C)c([N+](=O)[O-])cc3nc(OC)c(OC)nc23)cc1 is higher in melting point: 127 to 129 °C for the first, 206 to 208 °C for the second.

Compared with O=CN(O)C(CS(=O)(=O)c1ccc(Oc2ccc(OC(F)(F)F)cc2)cc1)CS(=O)(=O)N1CCC2(CC1)OCCO2 (stereo unspecified), O=C(N[C@@H](CS(=O)(=O)c1ccc(Oc2ccccc2)cc1)C(=O)NO)OCc1ccccc1 is higher in melting point: 178 to 179 °C for the first, 195 to 202 °C for the second.

First: CCc1nc(/C=C\c2cn(-c3ccccc3)nc2OCc2ccc(OCc3csc(N4CCCCC4)n3)c(OC)c2)cs1
Second: COc1ccc2c3c(ccc2c1)-c1ccccc1C3c1ccc(OCCN2CCCCC2)cc1 (stereo unspecified)
The melting point of the first is lower: 93 to 94 °C for the first, 130 to 133 °C for the second.

First: O=C1CCCc2oc(-c3ccccc3)cc21
Second: O=c1oc(=O)n(Cc2ccccc2)c2ncccc12
The melting point of the first is lower: 132 to 134 °C for the first, 168 °C for the second.

First: Nc1ccc(-c2scc3c2OCCO3)cc1
Second: CC1(C)CCC(N2c3ccccc3Oc3ccc(C(F)(F)F)cc32)=N1
The melting point of the first is higher: 98.5 to 99 °C for the first, 64 to 67 °C for the second.

First: O=C(O)c1ccc(S(=O)(=O)Oc2ccc(-c3ccc(-c4c(Cc5ccccc5)oc5ccccc45)cc3)cc2)cc1
Second: O=CC(=Cc1ccc(OC(=O)c2ccc(Br)cc2)cc1)C(C=O)=Cc1ccc(OC(=O)c2ccc(Br)cc2)cc1
The melting point of the first is lower: 186 to 188 °C for the first, 223 to 225 °C for the second.

Compared with COc1cn(-c2cc(F)c(Br)cc2F)nc(-c2ccnn2-c2ccccc2)c1=O, COc1ccccc1N1CCc2c(C)nc3c(OC)cccc3c21 is lower in melting point: 211 to 213 °C for the first, 168 to 169 °C for the second.

First: COc1cc(C)cc2c(=O)oc3c(c12)C(=O)c1cccc(O)c1C3=O
Second: COc1cccc(CSCCNC(=O)c2c(Cl)cccc2OC)c1
The melting point of the first is higher: 282 to 292 °C for the first, 58 to 59 °C for the second.

First: O=C(CCC(=O)c1ccc(CCNS(=O)(=O)c2ccccc2)cc1)Nc1nnn[nH]1
Second: CC(=O)NCCC1CCc2ccc3nc(CCc4ccccc4)oc3c21 (stereo unspecified)
The melting point of the first is higher: 241 to 242 °C for the first, 85 to 87 °C for the second.

First: CC(C)(C)N(O)CC(O)c1cc(F)c(N)c(Br)c1 (stereo unspecified)
Second: Fc1cc(Cl)c(CCl)cc1-c1ncnc(C(F)F)c1Cl
The melting point of the first is lower: 122 to 125 °C for the first, 132 to 133 °C for the second.

Compared with CN1CCC(c2c[nH]c3ccc(C(=O)c4ccc(OC(F)(F)F)cc4)cc23)CC1, N#Cc1cc(-c2c(C(N)=O)ccn2-c2ccc(F)cc2)ccc1OCC(F)(F)F is higher in melting point: 172 to 175 °C for the first, 227 to 228 °C for the second.

Compared with Clc1c2ccccc2nc2c1sc1ccccc12, COCCOc1nn2c(-c3ccc(OC)cc3)nnc2c2ccccc12 is higher in melting point: 158 to 159 °C for the first, 174 to 176 °C for the second.

First: Nc1nc(N)nc(N2CCOCC2)n1
Second: Cc1coc2cc(N3CCCCC3)c(Cl)cc12
The melting point of the first is higher: 248 to 250 °C for the first, 82 to 84 °C for the second.

First: ON=C1CCC(c2ccc(Cl)c(Cl)c2)c2ccccc21 (stereo unspecified)
Second: COCC1(C)Oc2ccccc2C(n2ccccc2=O)C1O (stereo unspecified)
The melting point of the first is lower: 159 to 162 °C for the first, 244 to 246 °C for the second.

First: CCOc1cc2ncc(C#N)c(Nc3ccc(Sc4nccn4C)c(Cl)c3)c2cc1OCC
Second: COc1ccccc1Oc1c(NS(=O)(=O)c2ccc(C(C)(C)C)cc2)nc(OCCO)nc1OCCOc1ncc(Br)cn1
The melting point of the first is higher: 285 to 290 °C for the first, 73.5 to 77 °C for the second.

Compared with CC(C)(C)OC1CCC2(C)C(=CC(=O)C3C4CCC(=O)C4(C)CCC32)C1 (stereo unspecified), CN1C(=O)CCCc2ccc(Nc3ncc(Cl)c(N[C@@H]4CCCC[C@H]4NS(C)(=O)=O)n3)cc21 is lower in melting point: 189 to 191 °C for the first, 127 to 130 °C for the second.

Compared with CC(=O)NCc1ccc(Oc2ccccc2C(=O)CN2CCN(c3ccncc3)CC2)cc1, CC1CC(N)=NN1c1nc2ccccc2s1 (stereo unspecified) is higher in melting point: 150 to 151 °C for the first, 212 to 215 °C for the second.

Compared with CC(=O)[C@@H]1CC[C@@H](C)C[C@H]1O, CCN1CC2CN(CC)CC(C1)C2O (stereo unspecified) is higher in melting point: 46 to 46.5 °C for the first, 61.5 °C for the second.

First: CCOC(=O)C1=C(N)NC2=C(C(=O)CCC2)C1c1cc(OC)c(OC)cc1[N+](=O)[O-] (stereo unspecified)
Second: COC(=O)CC/C(C)=C/Cc1c(N)c2c(c(C)c1OC)COC2=O
The melting point of the first is higher: 261 °C for the first, 91 to 93 °C for the second.

For COc1ccc(C(O)(C(F)(F)F)C(F)(F)F)cc1C=CC(=O)O, the melting point was 184 to 186 °C.
